Structures are written as SMILES. pIC50: −log10 of the molar value. Structures can show the parent of a compound that is named as a salt.

Our source for the IC50 values is patent US20090291942A1, “IMIDAZO PYRIDINE DERIVATIVES” (priority 2008, published 2009).

For the experiment, the target named is T1, human GPR4 (Homo sapiens, UniProt P46093).
T1 construct: expressed in transfected cells
Put plainly: Cell-based assay for human GPR4 activity (pH-induced cAMP formation, HTRF). The following applies: HeLa cells stably expressing human GPR4, pH-induced cAMP formation. As for the experimental part: a) Cell-Based Assay for Human GPR4 Activity
HeLa cells stably expressing human GPR4 were established by transfecting the cells with a construct containing the human GPR4 coding sequence. The cells were grown in DMEM/HAM's F12 medium supplemented with 10% fetal calf serum (FCS), 100 u/ml penicillin, 100 μg/ml streptomycin and 400 μg/ml G418 and 10 mM Hepes pH 8.0. pH-induced formation of cAMP was determined using the HTRF technology as provided by CisBio Inc. The cells were seeded in 384-well plates and cultured for 24 hours at 37° C., 5% CO2 before performing the assay. Medium was removed and 10 μl buffer A (HBS, 10 mM Hepes, pH 8, 2 mM IBMX) was added. For compound testing, buffer A with 2× concentrated compounds was used. Cells were incubated for 15 min at room temperature. 10 μl buffer B (HBS, 30 mM Hepes, specific pH) was added to reach the appropriate final pH for stimulation (see below) and incubation was continued for 15 min at room temperature. […] HBS: 130 mM NaCl, 0.9 mM NaH2PO4, 5.4 mM KCl, 0.8 mM MgSO4, CaCl2 1.8 mM, 25 mM glucose, 10-30 mM Hepes. Adjustment of HBS buffers: Bf A Bf B Final stimulation pH (1 volume buffer A+1 volume buffer B)
Compounds were diluted from fresh stock solutions at 10 mM in DMSO to 2 mM and then used for serial dilutions in DMSO.

T1 sequence (P46093 whole entry): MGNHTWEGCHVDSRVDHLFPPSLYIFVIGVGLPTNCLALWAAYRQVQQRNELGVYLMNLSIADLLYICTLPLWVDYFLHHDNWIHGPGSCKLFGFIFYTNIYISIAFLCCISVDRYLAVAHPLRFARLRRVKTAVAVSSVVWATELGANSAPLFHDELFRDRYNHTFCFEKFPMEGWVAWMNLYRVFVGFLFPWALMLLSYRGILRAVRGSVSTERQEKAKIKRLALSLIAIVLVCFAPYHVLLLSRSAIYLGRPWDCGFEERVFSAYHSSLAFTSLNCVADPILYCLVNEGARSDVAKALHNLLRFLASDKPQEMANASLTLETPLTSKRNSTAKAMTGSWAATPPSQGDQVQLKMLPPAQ

`CCc1nc2c(C)cc(C)nc2n1Cc1ccc(/C=C/CN2CCC(N3CCCC3)CC2)cc1` [Example 32, 2-Ethyl-5,7-dimethyl-3-{4-[(E)-3-(4-pyrrolidin-1-yl-piperidin-1-yl)-propenyl]-benzyl}-3H-imidazo[4,5-b]pyridine] had a pIC50 of 6.75.
With `CCc1nc2c(C)cc(C)nc2n1Cc1ccc(/C=C/CN2CCC(N3CCOCC3)CC2)cc1` [Example 34, 2-Ethyl-5,7-dimethyl-3-{4-[(E)-3-(4-morpholin-4-yl-piperidin-1-yl)-propenyl]-benzyl}-3H-imidazo[4,5-b]pyridine dihydrochloride] the figure was 6.74.
`CCc1nc2c(C)cc(C)nc2n1Cc1ccc(/C=C/CN2CCC(N3CCN(C)CC3)CC2)cc1` [Example 35, 2-Ethyl-5,7-dimethyl-3-(4-{(E)-3-[4-(4-methyl-piperazin-1-yl)-piperidin-1-yl]-propenyl}-benzyl)-3H-imidazo[4,5-b]pyridine] gave a pIC50 of 6.47. Compared with the last molecule, the pIC50 is 0.27 log units lower.
Molecule `CCc1nc2c(C)cc(C)nc2n1Cc1ccc(/C=C/CN2CCC(O)CC2)cc1` [Example 36, 1-{(E)-3-[4-(2-Ethyl-5,7-dimethyl-imidazo[4,5-b]pyridin-3-ylmethyl)-phenyl]-allyl}-piperidin-4-ol] showed a pIC50 of 6.32. The pIC50 values of the last two molecules are within 0.2 log units of each other.
Molecule `CCc1nc2c(C)cc(C)nc2n1Cc1ccc(/C=C/CN2CCC(OC)CC2)cc1` [Example 37, 2-Ethyl-3-{4-[(E)-3-(4-methoxy-piperidin-1-yl)-propenyl]-benzyl}-5,7-dimethyl-3H-imidazo[4,5-b]pyridine] showed a pIC50 of 6.38.
In the case of `CCc1nc2c(C)cc(C)nc2n1Cc1ccc(/C=C/CN2CCC(OCC(=O)NC)CC2)cc1` [Example 38, 2-(1-{(E)-3-[4-(2-Ethyl-5,7-dimethyl-imidazo[4,5-b]pyridin-3-ylmethyl)-phenyl]-allyl}-piperidin-4-yloxy)-N-methyl-acetamide] it was 6.14; in that of `CCc1nc2c(C)cc(C)nc2n1Cc1ccc(/C=C/CN2CCC(O)(CN3CCOCC3)CC2)cc1` [Example 39, 1-{(E)-3-[4-(2-Ethyl-5,7-dimethyl-imidazo[4,5-b]pyridin-3-ylmethyl)-phenyl]-allyl}-4-morpholin-4-ylmethyl-piperidin-4-ol], 6.55; in that of `CCc1nc2c(C)cc(C)nc2n1Cc1ccc(/C=C/CN2CCC(c3c[nH]c4ccccc34)CC2)cc1` [Example 40, 2-Ethyl-3-(4-{(E)-3-[4-(1H-indol-3-yl)-piperidin-1-yl]-propenyl}-benzyl)-5,7-dimethyl-3H-imidazo[4,5-b]pyridine hydrochloride], 6.15.
With `CCc1nc2c(C)cc(C)nc2n1Cc1ccc(/C=C/CN2[C@@H]3CC[C@H]2CC(n2cnc4ccccc42)C3)cc1` (stereo partly drawn) [Example 41, 3-{4-[(E)-3-((1R,5S)-3-Benzoimidazol-1-yl-8-aza-bicyclo[3.2.1]oct-8-yl)-propenyl]-benzyl}-2-ethyl-5,7-dimethyl-3H-imidazo[4,5-b]pyridine hydrochloride] the figure was 6.10; with `CCc1nc2c(C)cc(C)nc2n1Cc1ccc(/C=C/CN2CCNCC2)cc1` [Example 42, 2-Ethyl-5,7-dimethyl-3-[4-((E)-3-piperazin-1-yl-propenyl)-benzyl]-3H-imidazo[4,5-b]pyridine], 6.79; with `CCc1nc2c(C)cc(C)nc2n1Cc1ccc(/C=C/CN2CCN(C)CC2)cc1` [Example 43, 2-Ethyl-5,7-dimethyl-3-{4-[(E)-3-(4-methyl-piperazin-1-yl)-propenyl]-benzyl}-3H-imidazo[4,5-b]pyridine], 6.86.
`CCc1nc2c(C)cc(C)nc2n1Cc1ccc(/C=C/CN2CCN(CC)CC2)cc1` [Example 44, 2-Ethyl-3-{4-[(E)-3-(4-ethyl-piperazin-1-yl)-propenyl]-benzyl}-5,7-dimethyl-3H-imidazo[4,5-b]pyridine dihydrochloride]: the pIC50 was 6.58. This pIC50 lies 0.28 log units lower than the previous one.
In the case of `CCCN1CCN(C/C=C/c2ccc(Cn3c(CC)nc4c(C)cc(C)nc43)cc2)CC1` [Example 45, 2-Ethyl-5,7-dimethyl-3-{4-[(E)-3-(4-propyl-piperazin-1-yl)-propenyl]-benzyl}-3H-imidazo[4,5-b]pyridine], the pIC50 was 7.34.
`CCc1nc2c(C)cc(C)nc2n1Cc1ccc(/C=C/CN2CCN(C3CC3)CC2)cc1` [Example 47, 3-{4-[(E)-3-(4-Cyclopropyl-piperazin-1-yl)-propenyl]-benzyl}-2-ethyl-5,7-dimethyl-3H-imidazo[4,5-b]pyridine dihydrochloride]: the pIC50 is 6.39.
In the case of `CCCCN1CCN(C/C=C/c2ccc(Cn3c(CC)nc4c(C)cc(C)nc43)cc2)CC1` [Example 48, 3-{4-[(E)-3-(4-Butyl-piperazin-1-yl)-propenyl]-benzyl}-2-ethyl-5,7-dimethyl-3H-imidazo[4,5-b]pyridine dihydrochloride] it was 6.71; in that of `CCc1nc2c(C)cc(C)nc2n1Cc1ccc(/C=C/CN2CCN(C(C)CC)CC2)cc1` (stereo not shown) [Example 49, 3-{4-[(E)-3-(4-sec-Butyl-piperazin-1-yl)-propenyl]-benzyl}-2-ethyl-5,7-dimethyl-3H-imidazo[4,5-b]pyridine], 7.00.
With `CCc1nc2c(C)cc(C)nc2n1Cc1ccc(/C=C/CN2CCN(CC(C)C)CC2)cc1` [Example 50, 2-Ethyl-3-{4-[(E)-3-(4-isobutyl-piperazin-1-yl)-propenyl]-benzyl}-5,7-dimethyl-3H-imidazo[4,5-b]pyridine dihydrochloride], the pIC50 is 6.33.
With `CCc1nc2c(C)cc(C)nc2n1Cc1ccc(/C=C/CN2CCN(C(C)(C)C)CC2)cc1` [Example 51, 3-{4-[(E)-3-(4-tert-Butyl-piperazin-1-yl)-propenyl]-benzyl}-2-ethyl-5,7-dimethyl-3H-imidazo[4,5-b]pyridine] the figure was 6.79; with `CCc1nc2c(C)cc(C)nc2n1Cc1ccc(/C=C/CN2CCN(CCC(C)C)CC2)cc1` [Example 52, 2-Ethyl-5,7-dimethyl-3-(4-{(E)-3-[4-(3-methyl-butyl)-piperazin-1-yl]-propenyl}-benzyl)-3H-imidazo[4,5-b]pyridine dihydrochloride], 6.85; with `CCc1nc2c(C)cc(C)nc2n1Cc1ccc(/C=C/CN2CCN(C(CC)CC)CC2)cc1` [Example 53, 2-Ethyl-3-(4-{(E)-3-[4-(1-ethyl-propyl)-piperazin-1-yl]-propenyl}-benzyl)-5,7-dimethyl-3H-imidazo[4,5-b]pyridine dihydrochloride], 6.71.
As for `CCCC(C)N1CCN(C/C=C/c2ccc(Cn3c(CC)nc4c(C)cc(C)nc43)cc2)CC1` (stereo not shown) [Example 54, 2-Ethyl-5,7-dimethyl-3-(4-{(E)-3-[4-(1-methyl-butyl)-piperazin-1-yl]-propenyl}-benzyl)-3H-imidazo[4,5-b]pyridine dihydrochloride], the pIC50 was 6.78.
With `CCc1nc2c(C)cc(C)nc2n1Cc1ccc(/C=C/CN2CCN(CC3CCC3)CC2)cc1` [Example 55, 3-{4-[(E)-3-(4-Cyclobutylmethyl-piperazin-1-yl)-propenyl]-benzyl}-2-ethyl-5,7-dimethyl-3H-imidazo[4,5-b]pyridine dihydrochloride] the figure was 7.07; with `CCc1nc2c(C)cc(C)nc2n1Cc1ccc(/C=C/CN2CCN(C3CCCC3)CC2)cc1` [Example 56, 3-{4-[(E)-3-(4-Cyclopentyl-piperazin-1-yl)-propenyl]-benzyl}-2-ethyl-5,7-dimethyl-3H-imidazo[4,5-b]pyridine], 6.78; with `CCc1nc2c(C)cc(C)nc2n1Cc1ccc(/C=C/CN2CCN(C3CCCCC3)CC2)cc1` [Example 57, 3-{4-[(E)-3-(4-Cyclohexyl-piperazin-1-yl)-propenyl]-benzyl}-2-ethyl-5,7-dimethyl-3H-imidazo[4,5-b]pyridine dihydrochloride], 6.92.
`CCc1nc2c(C)cc(C)nc2n1Cc1ccc(/C=C/CN2CCN(CCN(C)C)CC2)cc1` [Example 58, [2-(4-{(E)-3-[4-(2-Ethyl-5,7-dimethyl-imidazo[4,5-b]pyridin-3-ylmethyl)-phenyl]-allyl}-piperazin-1-yl)-ethyl]-dimethyl-amine trihydrochloride] had a pIC50 of 6.59.
With `CCc1nc2c(C)cc(C)nc2n1Cc1ccc(/C=C/CN2CCN(CCCN(C)C)CC2)cc1` [Example 59, [3-(4-{(E)-3-[4-(2-Ethyl-5,7-dimethyl-imidazo[4,5-b]pyridin-3-ylmethyl)-phenyl]-allyl}-piperazin-1-yl)-propyl]-dimethyl-amine dihydrochloride] the figure was 6.64.
As for `CCc1nc2c(C)cc(C)nc2n1Cc1ccc(/C=C/CN2CCN(CCN(CC)CC)CC2)cc1` [Example 60, Diethyl-[2-(4-{(E)-3-[4-(2-ethyl-5,7-dimethyl-imidazo[4,5-b]pyridin-3-ylmethyl)-phenyl]-allyl}-piperazin-1-yl)-ethyl]-amine hydrochloride], the pIC50 was 6.00.
On to `CCc1nc2c(C)cc(C)nc2n1Cc1ccc(/C=C/CN2CCN(CCN(C(C)C)C(C)C)CC2)cc1` [Example 61, [2-(4-{(E)-3-[4-(2-Ethyl-5,7-dimethyl-imidazo[4,5-b]pyridin-3-ylmethyl)-phenyl]-allyl}-piperazin-1-yl)-ethyl]-diisopropyl-amine trihydrochloride], for which the pIC50 was 6.30.
